By koff is commonly meant a measure of how fast the partners let go of each other.

One compound from BindingDB's records for doi:10.1021/acsmedchemlett.8b00255 (2018) can be followed below.

In this assay the target is T1, Interleukin-23 receptor (Homo sapiens, UniProt Q5VWK5).
T1 sequence (Q5VWK5 whole entry): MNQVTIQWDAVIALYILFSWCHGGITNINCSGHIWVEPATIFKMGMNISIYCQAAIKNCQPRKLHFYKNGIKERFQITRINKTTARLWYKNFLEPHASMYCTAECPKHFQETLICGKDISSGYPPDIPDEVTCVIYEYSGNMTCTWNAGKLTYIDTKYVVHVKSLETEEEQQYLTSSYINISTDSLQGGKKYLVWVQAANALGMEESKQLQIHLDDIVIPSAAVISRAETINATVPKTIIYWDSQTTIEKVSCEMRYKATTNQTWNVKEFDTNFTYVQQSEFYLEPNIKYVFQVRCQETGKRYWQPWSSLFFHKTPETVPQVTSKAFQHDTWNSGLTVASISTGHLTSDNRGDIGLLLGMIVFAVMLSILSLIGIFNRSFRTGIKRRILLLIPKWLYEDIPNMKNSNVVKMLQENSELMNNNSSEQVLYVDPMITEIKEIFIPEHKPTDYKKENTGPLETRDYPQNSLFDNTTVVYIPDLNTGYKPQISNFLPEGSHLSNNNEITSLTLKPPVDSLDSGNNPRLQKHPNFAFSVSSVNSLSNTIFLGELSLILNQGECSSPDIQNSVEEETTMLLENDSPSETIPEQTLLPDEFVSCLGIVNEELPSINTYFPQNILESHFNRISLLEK
Kind of assay: Binding affinity to recombinant human flag/His-tagged IL-23R (1 to 353 residues) expressed in HEK293F cells assessed as dissociation rate constant measured over 90 secs by surface plasmon resonance assay. Background: SPR reads the build-up and loss of mass on a sensor chip optically.

Consider `CC(=O)N[C@H]1CCSC[C@@H](C(=O)N[C@@H](Cc2ccc(OCCN)cc2)C(=O)N[C@@H](Cc2c[nH]c3ccccc23)C(=O)N[C@@](C)(CCCCN)C(=O)N[C@@H](CCC(=O)O)C(=O)N[C@@H](CC(N)=O)C(=O)NCC(N)=O)NC(=O)[C@H](CCC(N)=O)NC(=O)[C@H](Cc2c[nH]c3ccccc23)NC(=O)[C@H]([C@@H](C)O)NC(=O)[C@H](CCC(N)=O)NC1=O`, for which the koff is 0.0274 s⁻¹.
